In patent publication US20230391756A1, “NEW COMPOUND” (JANSSEN PHARMACEUTICA NV, priority 2020, published 2023) one finds EC50, melting point and IC50 data, which are given here for four compounds.

The subject of one series is TNF. The series can be described thus: PBMC assay: TNF cytokine level after LPS stimulation. It is filed as cell-based. The following applies: human PBMCs, 100 ng/ml LPS for 6 hrs, MSD, read-out: TNFα EC50. The gist of the method:
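Thawed healthy-donor human PBMCs, 7.5×10^4 cells per well, preincubated 30 min at 37° C, then stimulated with 100 ng/ml LPS (final) for 6 hrs. Supernatant TNF (and IL-1β) measured by MSD immunoassay.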

The test system of series [1] is NLRP3 inflammasome pathway (IL-1β). The series can be described thus: PBMC assay: IL-1β release after LPS stimulation. It is filed as cell-based. The following applies: human PBMCs, 100 ng/ml LPS for 6 hrs, MSD.

For orientation: EC50 means the concentration needed to bring the measured effect to its halfway point. The term melting point denotes the temperature, or range, at which the solid turns liquid. In general, IC50 refers to the point on the concentration scale where inhibition reaches its midpoint. Read a low IC50 as greater potency in that assay. As to `CC(C)n1nc(CC(=O)Nc2ccc3nncn3n2)c(=O)c2ccc(C(C)(F)F)cc21` [F-145], the melting point turned out to be 214.1 °C. The EC50 in the series with TNF amounted to 4320 nM. In addition, the half-maximal inhibitory concentration (IC50) in series [1] was found to be 77 nM.
On the same counts, the results for `CCC(C)n1nc(CC(=O)Nc2ccc3nncn3n2)c(=O)c2ccc(C(F)(F)F)cc21` (stereo not drawn) [F-146] are 179.8 °C, 4670 nM and 142 nM.
With `CC(C)n1nc(CC(=O)Nc2ccc3nncn3n2)c(=O)c2ccc(C(C)(C)F)cc21` [F-147], the melting point came out at 188.2 °C. For the same compound, the EC50 in the series with TNF is 2340 nM. This compound also displayed an IC50 in series [1] of 51 nM.
`CC(C)n1nc(CC(=O)Nc2ccc3nncn3n2)c(=O)c2ccc(C3CCC3)cc21` [F-148] gave a melting point of 168.8 °C. Besides, in the series on TNF, the EC50 worked out at 4580 nM. In series [1], the IC50 is 513 nM.
